Reference: patent US20080014278A1, “METAL-CONTAINING FORMULATIONS AND METHODS OF USE” (priority 2006, published 2008)

Experiments:
Staph. aureus = assay: Minimal bactericidal concentration (MBC) assay; type: cell-based, Staphylococcus aureus
Procedure: (§1) Minimal bactericidal concentration (MBC) assay—Overnight-grown MIC plates, prepared as described in Example 16, were evaluated to determine the MIC. Culture was then sampled from wells at and near the MIC using sterile inoculating loops, and transferred to fresh MHA plates to determine if viable bacteria remained. […] The MBC was determined as the well in the MIC plate which contained the lowest concentration of silver yielding no bacterial growth on the MHA plate.

Staphylococcus aureus = assay: MIC assay (microdilution); type: cell-based
E. coli = assay: Minimal bactericidal concentration (MBC) assay; type: cell-based, Escherichia coli
Procedure: as §1

B. multivorans = assay: Minimal bactericidal concentration (MBC) assay; type: cell-based, Burkholderia multivorans
Procedure: as §1

Enterobacter cloacae = assay: MIC assay (microdilution); type: cell-based; conditions: Enterobacter cloacae
K. pneumoniae = assay: Minimal bactericidal concentration (MBC) assay; type: cell-based, Klebsiella pneumoniae
Procedure: as §1

C. freundii = assay: Minimal bactericidal concentration (MBC) assay; type: cell-based, Citrobacter freundii; conditions: C. freundii NP410
Procedure: as §1

Prot. mirabilis = assay: Minimal bactericidal concentration (MBC) assay; type: cell-based, Proteus mirabilis; conditions: Prot. mirabilis NP405
Procedure: as §1

Staph epidermidis = assay: Minimal bactericidal concentration (MBC) assay; type: cell-based, Staphylococcus epidermidis
Procedure: as §1

Escherichia coli = assay: MIC assay (microdilution); type: cell-based
Streptococcus pneumoniae = assay: MIC assay (microdilution); type: cell-based; conditions: lactate solutions, nanocrystalline silver: range for 12 samples
Klebsiella pneumoniae = assay: MIC assay (microdilution); type: cell-based
Streptococcus pyogenes = assay: MIC assay (microdilution); type: cell-based
[1] = test system: Staphylococcus epidermidis; assay: MIC assay (microdilution); type: cell-based
Burkholderia dolosa = assay: MIC assay (microdilution); type: cell-based
Ps. aeruginosa = assay: Minimal bactericidal concentration (MBC) assay; type: cell-based, Pseudomonas aeruginosa
Procedure: as §1

B dolosa = assay: Minimal bactericidal concentration (MBC) assay; type: cell-based, Burkholderia dolosa
Procedure: as §1

[2] = test system: Mycobacterium tuberculosis H37Ra; type: cell-based
Serratia marcescens = assay: MIC assay (microdilution); type: cell-based
Citrobacter freundii = assay: MIC assay (microdilution); type: cell-based; conditions: C. freundii NP410
Ser. marcescens = assay: Minimal bactericidal concentration (MBC) assay; type: cell-based, Serratia marcescens
Procedure: as §1

Pseudomonas aeruginosa = assay: MIC assay (microdilution); type: cell-based
Proteus mirabilis = assay: MIC assay (microdilution); type: cell-based; conditions: Prot. mirabilis NP405
Burkholderia multivorans = assay: MIC assay (microdilution); type: cell-based
Strep. pyogenes = assay: Minimal bactericidal concentration (MBC) assay; type: cell-based, Streptococcus pyogenes
Procedure: as §1

[3] = K. pneumoniae NP403, second entry
[4] = Ser. marcescens NP402, second entry
[5] = Ser. marcescens NP408, second entry

## O=[N+]([O-])[O-].[Ag+] [AgNO3, silver nitrate]
Staph. aureus; Staph. aureus 6538
  MBC: 6 parts silver per million
Staph. aureus; Staph. aureus 700699
  MBC: 6 parts silver per million
Staph. aureus; Staph. aureus NP101
  MBC: 11 parts silver per million
Staph. aureus; Staph. aureus NP102
  MBC: 6 parts silver per million
Staph. aureus; Staph. aureus NP103
  MBC: 6 parts silver per million
Staphylococcus aureus; Staph aureus NP101, Lactate
  MIC: 9 ppm
Staphylococcus aureus; Staph aureus NP101, Water/Lecithin
  MIC: 11 ppm
Staphylococcus aureus; Staph aureus NP101, Water/PVA
  MIC: 11 ppm
Staphylococcus aureus; Staph aureus NP102, Lactate
  MIC: 9 ppm
Staphylococcus aureus; Staph aureus NP102, Water/Lecithin
  MIC: 11 ppm
Staphylococcus aureus; Staph aureus NP102, Water/PVA
  MIC: 11 ppm
Staphylococcus aureus; Staph aureus NP103, Lactate
  MIC: 9 ppm
Staphylococcus aureus; Staph aureus NP103, Water/Lecithin
  MIC: 11 ppm
Staphylococcus aureus; Staph aureus NP103, Water/PVA
  MIC: 11 ppm
Staphylococcus aureus; Staph. aureus 6538
  MIC: 6 parts silver per million
Staphylococcus aureus; Staph. aureus 700699
  MIC: 3 parts silver per million
Staphylococcus aureus; Staph. aureus NP101
  MIC: 6 parts silver per million
Staphylococcus aureus; Staph. aureus NP102
  MIC: 6 parts silver per million
Staphylococcus aureus; Staph. aureus NP103
  MIC: 6 parts silver per million
Staphylococcus aureus; lactate solutions, S. aureus (ATCC), nanocrystalline silver: range for 12 samples
  MIC: 11 µg/mL
Staphylococcus aureus; lactate solutions, S. aureus (clin.), nanocrystalline silver: range for 12 samples
  MIC: 5 µg/mL
E. coli; E. coli 8739
  MBC: 0.4 parts silver per million
E. coli; E. coli 43745
  MBC: 0.4 parts silver per million
E. coli; E. coli NP412
  MBC: 1 parts silver per million
B. multivorans; B. multivorans B1
  MBC: 3 parts silver per million
B. multivorans; B. multivorans B2
  MBC: 3 parts silver per million
B. multivorans; B. multivorans B4
  MBC: 3 parts silver per million
Enterobacter cloacae; aerobic +
  MIC: 13 µg/mL
Enterobacter cloacae; aerobic − (anaerobic)
  MIC: 25 µg/mL
K. pneumoniae; K. pneumoniae NP401
  MBC: 3 parts silver per million
K. pneumoniae; K. pneumoniae NP403
  MBC: 6 parts silver per million
K. pneumoniae; [3]
  MBC: 3 parts silver per million
K. pneumoniae; K. pneumoniae NP406
  MBC: 1 parts silver per million
C. freundii
  MBC: 3 parts silver per million
Prot. mirabilis
  MBC: 13 parts silver per million
Staph epidermidis; Staph epidermidis 12228
  MBC: 3 parts silver per million
Staph epidermidis; Staph epidermidis NP136
  MBC: 3 parts silver per million
Escherichia coli; E. coli 8739
  MIC: 0.4 parts silver per million
Escherichia coli; E. coli 43745
  MIC: 1 parts silver per million
Escherichia coli; E. coli NP412
  MIC: 1 parts silver per million
Escherichia coli; lactate solutions, E. coli (ATCC), nanocrystalline silver: range for 12 samples
  MIC: 3 µg/mL
Streptococcus pneumoniae; S. pneumo (clin 314)
  MIC: 11 µg/mL
Streptococcus pneumoniae; S. pneumo (clin 315)
  MIC: 21 µg/mL
Klebsiella pneumoniae; K. pneumoniae NP401
  MIC: 3 parts silver per million
Klebsiella pneumoniae; K. pneumoniae NP403
  MIC: 6 parts silver per million
Klebsiella pneumoniae; [3]
  MIC: 6 parts silver per million
Klebsiella pneumoniae; K. pneumoniae NP406
  MIC: 1 parts silver per million
Klebsiella pneumoniae; Klebsiella pneumoniae, aerobic +
  MIC: 3 µg/mL
Klebsiella pneumoniae; Klebsiella pneumoniae, aerobic − (anaerobic)
  MIC: 3 µg/mL
Streptococcus pyogenes; Strep. pyogenes NP303
  MIC: 3 parts silver per million
Streptococcus pyogenes; Strep. pyogenes NP304
  MIC: 6 parts silver per million
Streptococcus pyogenes; Strep. pyogenes NP306
  MIC: 6 parts silver per million
Streptococcus pyogenes; lactate solutions, S. pyog (clin. 303), nanocrystalline silver: range for 12 samples
  MIC: 3 µg/mL
Streptococcus pyogenes; lactate solutions, S. pyog (clin. 304), nanocrystalline silver: range for 12 samples
  MIC: 5 µg/mL
[1]; Staph epidermidis 12228
  MIC: 3 parts silver per million
[1]; Staph epidermidis NP136
  MIC: 3 parts silver per million
[1]; lactate solutions, S. epiderm (ATCC), nanocrystalline silver: range for 12 samples
  MIC: 3 µg/mL
Burkholderia dolosa; B dolosa A3
  MIC: 2 parts silver per million
Burkholderia dolosa; B dolosa A4
  MIC: 2 parts silver per million
Ps. aeruginosa; Ps. aeruginosa 27317
  MBC: 3 parts silver per million
Ps. aeruginosa; Ps. aeruginosa NP201
  MBC: 3 parts silver per million
Ps. aeruginosa; Ps. aeruginosa NP204
  MBC: 3 parts silver per million
Ps. aeruginosa; Ps. aeruginosa NP206
  MBC: 1 parts silver per million
B dolosa; B dolosa A3
  MBC: 3 parts silver per million
B dolosa; B dolosa A4
  MBC: 2 parts silver per million
[2]
  MIC: 2.5 μg/ml silver
Serratia marcescens; Ser. marcescens NP402
  MIC: 6 parts silver per million
Serratia marcescens; [4]
  MIC: 6 parts silver per million
Serratia marcescens; Ser. marcescens NP408
  MIC: 6 parts silver per million
Serratia marcescens; [5]
  MIC: 11 parts silver per million
Serratia marcescens; Serratia marcescens, aerobic +
  MIC: 6 µg/mL
Serratia marcescens; Serratia marcescens, aerobic − (anaerobic)
  MIC: 13 µg/mL
Citrobacter freundii
  MIC: 3 parts silver per million
Ser. marcescens; Ser. marcescens NP402
  MBC: 6 parts silver per million
Ser. marcescens; [4]
  MBC: 6 parts silver per million
Ser. marcescens; Ser. marcescens NP408
  MBC: 6 parts silver per million
Ser. marcescens; [5]
  MBC: 11 parts silver per million
Pseudomonas aeruginosa; P. aeruginosa NP212, formulation type Lactate
  MIC: 2 ppm
Pseudomonas aeruginosa; P. aeruginosa NP212, formulation type Water/Lecithin
  MIC: 3 ppm
Pseudomonas aeruginosa; P. aeruginosa NP212, formulation type Water/PVA
  MIC: 3 ppm
Pseudomonas aeruginosa; P. aeruginosa NP213, Lactate
  MIC: 1 ppm
Pseudomonas aeruginosa; P. aeruginosa NP213, Water/Lecithin
  MIC: 1 ppm
Pseudomonas aeruginosa; P. aeruginosa NP213, Water/PVA
  MIC: 1 ppm
Pseudomonas aeruginosa; P. aeruginosa NP214, Lactate
  MIC: 1 ppm
Pseudomonas aeruginosa; P. aeruginosa NP214, Water/Lecithin
  MIC: 1 ppm
Pseudomonas aeruginosa; P. aeruginosa NP214, Water/PVA
  MIC: 3 ppm
Pseudomonas aeruginosa; Ps. aeruginosa 9027
  MIC: 1 parts silver per million
Pseudomonas aeruginosa; Ps. aeruginosa 27317
  MIC: 2 parts silver per million
Pseudomonas aeruginosa; Ps. aeruginosa NP201
  MIC: 1 parts silver per million
Pseudomonas aeruginosa; Ps. aeruginosa NP204
  MIC: 1 parts silver per million
Pseudomonas aeruginosa; Ps. aeruginosa NP206
  MIC: 1 parts silver per million
Pseudomonas aeruginosa; lactate solutions, P. aerug (ATCC), nanocrystalline silver: range for 12 samples
  MIC: 3 µg/mL
Pseudomonas aeruginosa; lactate solutions, P. aerug. (clin.), nanocrystalline silver: range for 12 samples
  MIC: 3 µg/mL
Proteus mirabilis
  MIC: 6 parts silver per million
Burkholderia multivorans; B. multivorans B1
  MIC: 3 parts silver per million
Burkholderia multivorans; B. multivorans B2
  MIC: 3 parts silver per million
Burkholderia multivorans; B. multivorans B4
  MIC: 2 parts silver per million
Strep. pyogenes; Strep. pyogenes NP303
  MBC: 10 parts silver per million
Strep. pyogenes; Strep. pyogenes NP304
  MBC: 21 parts silver per million
Strep. pyogenes; Strep. pyogenes NP306
  MBC: 21 parts silver per million
